Measured values from patent publication US20260317324A1, “BIFUNCTIONAL COMPOUNDS FOR DEGRADING BRAF VIA UBIQUITIN PROTEOSOME PATHWAY” (Nurix Therapeutics, Inc., priority 2023, published 2026).

Molecular target: T1, BRAF V600E (Homo sapiens, UniProt P15056, V600E)
T1 construct: endogenous C-terminal HiBiT fusion tag on BRAF V600E allele; endogenous in cells; host or cells: A375 clone 1F10 (CRISPR-Cas9 knock-in of the HiBiT tag; parental A375 from ATCC)
Assay: BRAF HiBiT degradation assay, C-terminal HiBiT-tagged BRAF V600E A375 cells (clone 1F10), Nano-Glo HiBiT Lytic assay
Assay type: cell-based
Settings: for Dmax: A-375
In short: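 Luminescence read-out: Nano-Glo HiBiT lytic reagent with LgBiT, 10 min at room temperature. Signal normalised to DMSO-treated tagged cells, with wildtype A375 as background. Cells are endogenously tagged BRAF V600E A375 clone 1F10. Compounds were tested from 1 μM to 0.01 nM; Dmax is observed % degraded at maximal effect.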

[1] = A375 (BRAF V600E), DC50 at 50%: fitted conc. at Y=50
[2] = A375 (BRAF V600E), percentage protein degraded at maximal compound effect relative to DMSO

T1 sequence (P15056 whole entry V600E, the tested form may be a part): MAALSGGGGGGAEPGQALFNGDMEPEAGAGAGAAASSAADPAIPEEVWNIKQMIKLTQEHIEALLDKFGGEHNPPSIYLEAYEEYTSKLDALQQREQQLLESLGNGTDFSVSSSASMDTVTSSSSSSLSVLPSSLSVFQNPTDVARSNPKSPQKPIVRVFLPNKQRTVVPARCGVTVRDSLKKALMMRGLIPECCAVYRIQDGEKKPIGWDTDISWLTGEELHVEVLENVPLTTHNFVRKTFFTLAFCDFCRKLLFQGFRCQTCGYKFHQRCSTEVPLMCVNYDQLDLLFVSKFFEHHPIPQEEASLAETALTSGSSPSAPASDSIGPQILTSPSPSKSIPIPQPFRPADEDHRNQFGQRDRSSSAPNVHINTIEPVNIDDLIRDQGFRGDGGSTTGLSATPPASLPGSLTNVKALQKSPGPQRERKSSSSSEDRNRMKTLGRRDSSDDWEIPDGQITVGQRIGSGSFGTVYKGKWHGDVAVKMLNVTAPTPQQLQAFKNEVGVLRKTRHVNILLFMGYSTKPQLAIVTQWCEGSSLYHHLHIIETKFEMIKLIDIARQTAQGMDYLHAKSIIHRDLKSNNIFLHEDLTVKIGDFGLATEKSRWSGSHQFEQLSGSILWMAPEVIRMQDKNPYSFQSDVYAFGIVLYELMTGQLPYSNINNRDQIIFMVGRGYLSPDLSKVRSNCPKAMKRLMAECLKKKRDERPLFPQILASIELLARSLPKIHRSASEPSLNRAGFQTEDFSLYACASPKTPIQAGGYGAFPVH

| Compound | DC50 [1] [nM] | Dmax [2] [%] | DC50 (A375 (BRAF V600E, Class 1), DC50 at 50% degradation) [nM] | Dmax (A375 (BRAF V600E, Class 1), observed Dmax, % protein degraded relative to DMSO control) [%] |
| --- | --- | --- | --- | --- |
| CCCS(=O)(=O)Nc1cccc(-c2nc(C(C)(C)C)sc2-c2ccnc(Nc3ccc(C4CCN(C(=O)CC5CCN(C6CCN(c7ccc8c(c7)C(=O)N(C7CCC(=O)NC7=O)C8=O)CC6)CC5)CC4)cc3)n2)c1F (racemic) [Compound 158, Rac-N-[3-(2-tert-butyl-5-{2-[(4-{1-[2-(1′-{2-[(3R)-2,6-dioxopiperidin-3-yl]-1,3-dioxo-2,3-dihydro-1H-isoindol-5-yl}-[1,4′-bipiperidin]-4-yl)acetyl]piperidin-4-yl}phenyl)amino]pyrimidin-4-yl}-1,3-thiazol-4-yl)-2-fluorophenyl]propane-1-sulfonamide] | 50 to 500 | 30 to 70 |  |  |
| CCCS(=O)(=O)Nc1cccc(-c2nc(C(C)(C)C)sc2-c2ccnc(Nc3cnn(CC4CCN(CC5CCN(c6ccc(C(=O)NC7CCC(=O)NC7=O)nc6)CC5)CC4)c3)n2)c1F (racemic) [Compound 82, Rac-5-(4-{[4-({4-[(4-{2-tert-butyl-4-[2-fluoro-3-(propane-1-sulfonamido)phenyl]-1,3-thiazol-5-yl}pyrimidin-2-yl)amino]-1H-pyrazol-1-yl}methyl)piperidin-1-yl]methyl}piperidin-1-yl)-N-[(3R)-2,6-dioxopiperidin-3-yl]pyridine-2-carboxamide] | 10 to 50 | 30 to 70 |  |  |
| CCCS(=O)(=O)Nc1cccc(-c2nc(C(C)(C)C)sc2-c2ccnc(NC3CC4(C3)CN(C(=O)CN3CCN(CCCc5cccc6c5C(=O)N(C5CCC(=O)NC5=O)C6=O)CC3)C4)n2)c1F (racemic) [Compound 148, Rac-N-[3-(2-tert-butyl-5-{2-[(2-{2-[4-(3-{2-[(3R)-2,6-dioxopiperidin-3-yl]-1,3-dioxo-2,3-dihydro-1H-isoindol-4-yl}propyl)piperazin-1-yl]acetyl}-2-azaspiro[3.3]heptan-6-yl)amino]pyrimidin-4-yl}-1,3-thiazol-4-yl)-2-fluorophenyl]propane-1-sulfonamide] | > 500 | 30 to 70 |  |  |
| CCCS(=O)(=O)Nc1cccc(-c2nc(C3CCN(C(=O)C4CCN(C(=O)CC5CCN(c6ccc(NC7CCC(=O)NC7=O)cc6)CC5)CC4)CC3)sc2-c2ccncn2)c1F (racemic) [Compound 184, Rac-N-(3-{2-[1-(1-{2-[1-(4-{[(3R)-2,6-dioxopiperidin-3-yl]amino}phenyl)piperidin-4-yl]acetyl}piperidine-4-carbonyl)piperidin-4-yl]-5-(pyrimidin-4-yl)-1,3-thiazol-4-yl}-2-fluorophenyl)propane-1-sulfonamide] | < 10 | > 70 |  |  |
| CCCS(=O)(=O)Nc1cccc(-c2nc(C(C)(C)C)sc2-c2ccnc(NC3CC4(CCN(C[C@H]5CC[C@H](Oc6ccc(C7CCC(=O)NC7=O)cc6)CC5)CC4)C3)n2)c1F (mixture of isomers) [Compound 130, N-[3-(2-tert-butyl-5-{2-[(7-{[(1r,4r)-4-{4-[(3RS)-2,6-dioxopiperidin-3-yl]phenoxy}cyclohexyl]methyl}-7-azaspiro[3.5]nonan-2-yl)amino]pyrimidin-4-yl}-1,3-thiazol-4-yl)-2-fluorophenyl]propane-1-sulfonamide] | > 500 | 30 to 70 |  |  |
| CCCS(=O)(=O)Nc1cccc(-c2nc(C(C)(C)C)sc2-c2ccnc(Nc3cnn(C4CCN(C(=O)C5CCN(c6ccc(C(=O)NC7CCC(=O)NC7=O)nc6)CC5)CC4)c3)n2)c1F (racemic) [Compound 107, Rac-5-[4-(4-{4-[(4-{2-tert-butyl-4-[2-fluoro-3-(propane-1-sulfonamido)phenyl]-1,3-thiazol-5-yl}pyrimidin-2-yl)amino]-1H-pyrazol-1-yl}piperidine-1-carbonyl)piperidin-1-yl]-N-[(3R)-2,6-dioxopiperidin-3-yl]pyridine-2-carboxamide] | 10 to 50 | 30 to 70 |  |  |
| CCCS(=O)(=O)Nc1cccc(-c2cn(-c3ccc(N4CCN(CC5(C)CCN(c6ccc(C7CCC(=O)NC7=O)cn6)CC5)CC4)cc3)nc2-c2ccncc2)c1F (racemic) [Compound 17, Rac-N-{3-[1-(4-{4-[(1-{5-[(3R)-2,6-dioxopiperidin-3-yl]pyridin-2-yl}-4-methylpiperidin-4-yl)methyl]piperazin-1-yl}phenyl)-3-(pyridin-4-yl)-1H-pyrazol-4-yl]-2-fluorophenyl}propane-1-sulfonamide] | 50 to 500 | 30 to 70 |  |  |
| CCCS(=O)(=O)Nc1cccc(-c2cn(-c3ccc(C(=O)N4CCN(CC5CCN(c6ccc([C@@H]7CCC(=O)NC7=O)cc6)CC5)CC4)cc3)nc2-c2ccncc2)c1F [Compound 12, N-{3-[1-(4-{4-[(1-{4-[(3S)-2,6-dioxopiperidin-3-yl]phenyl}piperidin-4-yl)methyl]piperazine-1-carbonyl}phenyl)-3-(pyridin-4-yl)-1H-pyrazol-4-yl]-2-fluorophenyl}propane-1-sulfonamide] | 50 to 500 | 30 to 70 |  |  |
| CCCS(=O)(=O)Nc1cccc(-c2cn(-c3ccc(C(=O)N4CCN(C(=O)CC5CCN(c6ccc(C7CCC(=O)NC7=O)cn6)CC5)CC4)cc3)nc2-c2ccncc2)c1F (racemic) [Compound 13, Rac-N-{3-[1-(4-{4-[2-(1-{5-[(3R)-2,6-dioxopiperidin-3-yl]pyridin-2-yl}piperidin-4-yl)acetyl]piperazine-1-carbonyl}phenyl)-3-(pyridin-4-yl)-1H-pyrazol-4-yl]-2-fluorophenyl}propane-1-sulfonamide] | 10 to 50 | > 70 |  |  |
| CCCS(=O)(=O)Nc1cccc(-c2nc(C(C)(C)C)sc2-c2ccnc(Nc3cccc(C4CCN(C(=O)CN5CCc6cc(C7CCC(=O)NC7=O)ccc6C5)CC4)c3)n2)c1F (racemic) [Compound 104, Rac-N-(3-{2-tert-butyl-5-[2-({3-[1-(2-{6-[(3R)-2,6-dioxopiperidin-3-yl]-1,2,3,4-tetrahydroisoquinolin-2-yl}acetyl)piperidin-4-yl]phenyl}amino)pyrimidin-4-yl]-1,3-thiazol-4-yl}-2-fluorophenyl)propane-1-sulfonamide] | 50 to 500 | 30 to 70 |  |  |
| CCCS(=O)(=O)Nc1cccc(-c2nc(C3CCN(Cc4ccc(C(=O)N[C@@H]5CCC(=O)NC5=O)cc4)CC3)sc2-c2ccnc(N)n2)c1F [Compound 255, 4-({4-[5-(2-aminopyrimidin-4-yl)-4-[2-fluoro-3-(propane-1-sulfonamido)phenyl]-1,3-thiazol-2-yl]piperidin-1-yl}methyl)-N-[(3R)-2,6-dioxopiperidin-3-yl]benzamide] |  |  | > 500 | < 30 |
| CCCS(=O)(=O)Nc1cccc(-c2nc(C(C)(C)C)sc2-c2ccnc(NC3CCN(C4CCN(CC5CCN(c6ccc(C7CCC(=O)NC7=O)cn6)CC5)CC4)CC3)n2)c1F (racemic) [Compound 136, Rac-N-(3-{2-tert-butyl-5-[2-({1′-[(1-{5-[(3R)-2,6-dioxopiperidin-3-yl]pyridin-2-yl}piperidin-4-yl)methyl]-[1,4′-bipiperidin]-4-yl}amino)pyrimidin-4-yl]-1,3-thiazol-4-yl}-2-fluorophenyl)propane-1-sulfonamide] | 50 to 500 | 30 to 70 |  |  |
| CCCS(=O)(=O)Nc1cccc(-c2nc(-c3ccc(C4CCN(C(=O)C5CCN(c6ccc(C7CCC(=O)NC7=O)cn6)CC5)CC4)cc3)sc2-c2ccnc(N)n2)c1F (racemic) [Compound 201, Rac-N-{3-[5-(2-aminopyrimidin-4-yl)-2-{4-[1-(1-{5-[(3R)-2,6-dioxopiperidin-3-yl]pyridin-2-yl}piperidine-4-carbonyl)piperidin-4-yl]phenyl}-1,3-thiazol-4-yl]-2-fluorophenyl}propane-1-sulfonamide] | 10 to 50 | 30 to 70 |  |  |
| CCCS(=O)(=O)Nc1cccc(-c2nc(C(C)(C)C)sc2-c2ccnc(Nc3ccc(C4CCN(C(=O)COc5ccc6c(c5)C(=O)N(C5CCC(=O)NC5=O)C6=O)CC4)cc3)n2)c1F (racemic) [Compound 176, Rac-N-[3-(2-tert-butyl-5-{2-[(4-{1-[2-({2-[(3R)-2,6-dioxopiperidin-3-yl]-1,3-dioxo-2,3-dihydro-1H-isoindol-5-yl}oxy)acetyl]piperidin-4-yl}phenyl)amino]pyrimidin-4-yl}-1,3-thiazol-4-yl)-2-fluorophenyl]propane-1-sulfonamide] | 10 to 50 | 30 to 70 |  |  |
| CCCS(=O)(=O)Nc1cccc(-c2nc(C(C)(C)C)sc2-c2ccnc(NC3CC4(C3)CN(C(=O)CC3CCN(C5CCN(c6ccc7c(c6)C(=O)N(C6CCC(=O)NC6=O)C7=O)CC5)CC3)C4)n2)c1F (racemic) [Compound 157, Rac-N-(3-{2-tert-butyl-5-[2-({2-[2-(1′-{2-[(3R)-2,6-dioxopiperidin-3-yl]-1,3-dioxo-2,3-dihydro-1H-isoindol-5-yl}-[1,4′-bipiperidin]-4-yl)acetyl]-2-azaspiro[3.3]heptan-6-yl}amino)pyrimidin-4-yl]-1,3-thiazol-4-yl}-2-fluorophenyl)propane-1-sulfonamide] | 50 to 500 | 30 to 70 |  |  |
| CCCS(=O)(=O)Nc1cccc(-c2nc(C(C)(C)C)sc2-c2ccnc(Nc3ccc(C4CCN(C(=O)CN5CCC6(CC5)CN(c5ccc7c(c5)C(=O)N(C5CCC(=O)NC5=O)C7=O)C6)CC4)cc3)n2)c1F (racemic) [Compound 153, Rac-N-[3-(2-tert-butyl-5-{2-[(4-{1-[2-(2-{2-[(3R)-2,6-dioxopiperidin-3-yl]-1,3-dioxo-2,3-dihydro-1H-isoindol-5-yl}-2,7-diazaspiro[3.5]nonan-7-yl)acetyl]piperidin-4-yl}phenyl)amino]pyrimidin-4-yl}-1,3-thiazol-4-yl)-2-fluorophenyl]propane-1-sulfonamide] | 50 to 500 | 30 to 70 |  |  |
